Assay results from PMC3399817 (PLoS ONE, 2012).

How the values were obtained:
Test in all cases: KINOMEscan
Assay type in all cases: binding
PIM3 = target: T1, PIM3 (Homo sapiens, UniProt Q86V86); settings: PIM3, 1 uM
T1 construct: purchased Ambit KINOMEscan (DiscoverX)
Experimental: (§1) First, we used Ambit's KINOMEscan™ technology to identify those kinases that are inhibited for substrate binding by the compounds, all assayed at 1 μM. Second, we used Invitrogen's SelectScreen® Biochemical Kinase Profiling Service to determine the in vitro IC50s for the compounds against specific kinases.

DRAK2 = target: T2, DRAK2 (Homo sapiens, UniProt O94768); settings: DRAK2, 1 uM
T2 construct: purchased Ambit KINOMEscan (DiscoverX)
Experimental: as §1

EPHA2 = target: T3, EPHA2 (Homo sapiens, UniProt P29317); settings: EPHA2, 1 uM
T3 construct: purchased Ambit KINOMEscan (DiscoverX)
Experimental: as §1

FLT3(N841I) = target: T4, FLT3(N841I) (Homo sapiens, UniProt P36888, N841I); settings: 1 uM
T4 construct: purchased Ambit KINOMEscan (DiscoverX)
Experimental: as §1

MAP3K2 = target: T5, MAP3K2 (Homo sapiens, UniProt Q9Y2U5); settings: MAP3K2, 1 uM
T5 construct: purchased Ambit KINOMEscan (DiscoverX)
Experimental: as §1

EGFR(L747-T751del,Sins) = target: T6, EGFR(L747-T751del,Sins) (Homo sapiens, UniProt P00533, DEL747-750/T751S); settings: 1 uM
T6 construct: purchased Ambit KINOMEscan (DiscoverX)
T6 sequence (P00533 with tags, fused parts or gaps DEL747-750/T751S limits assumed): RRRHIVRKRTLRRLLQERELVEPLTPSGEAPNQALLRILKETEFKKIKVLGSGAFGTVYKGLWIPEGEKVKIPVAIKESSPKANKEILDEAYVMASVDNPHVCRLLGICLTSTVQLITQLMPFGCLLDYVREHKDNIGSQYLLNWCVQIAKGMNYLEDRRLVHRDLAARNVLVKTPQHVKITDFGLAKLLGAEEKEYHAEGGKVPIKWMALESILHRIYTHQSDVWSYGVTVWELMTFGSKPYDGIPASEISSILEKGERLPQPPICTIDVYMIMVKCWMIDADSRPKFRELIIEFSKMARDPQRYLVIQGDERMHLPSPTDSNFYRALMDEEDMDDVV
Experimental: as §1

FLT4 = target: T7, FLT4 (Homo sapiens, UniProt P35916); settings: FLT4, 1 uM
T7 construct: purchased Ambit KINOMEscan (DiscoverX)
Experimental: as §1

DAPK2 = target: T8, DAPK2 (Homo sapiens, UniProt Q9UIK4); settings: DAPK2, 1 uM
T8 construct: purchased Ambit KINOMEscan (DiscoverX)
Experimental: as §1

PKAC-beta = target: T9, PKAC-beta (Homo sapiens, UniProt P22694); settings: 1 uM
T9 construct: purchased Ambit KINOMEscan (DiscoverX)
Experimental: as §1

VEGFR2 = target: T10, VEGFR2 (Homo sapiens, UniProt P35968); settings: VEGFR2, 1 uM
T10 construct: purchased Ambit KINOMEscan (DiscoverX)
Experimental: as §1

MET(Y1235D) = target: T11, MET(Y1235D) (Homo sapiens, UniProt P08581, Y1235D); settings: 1 uM
T11 construct: purchased Ambit KINOMEscan (DiscoverX)
T11 sequence (P08581 25-1390 Y1235D): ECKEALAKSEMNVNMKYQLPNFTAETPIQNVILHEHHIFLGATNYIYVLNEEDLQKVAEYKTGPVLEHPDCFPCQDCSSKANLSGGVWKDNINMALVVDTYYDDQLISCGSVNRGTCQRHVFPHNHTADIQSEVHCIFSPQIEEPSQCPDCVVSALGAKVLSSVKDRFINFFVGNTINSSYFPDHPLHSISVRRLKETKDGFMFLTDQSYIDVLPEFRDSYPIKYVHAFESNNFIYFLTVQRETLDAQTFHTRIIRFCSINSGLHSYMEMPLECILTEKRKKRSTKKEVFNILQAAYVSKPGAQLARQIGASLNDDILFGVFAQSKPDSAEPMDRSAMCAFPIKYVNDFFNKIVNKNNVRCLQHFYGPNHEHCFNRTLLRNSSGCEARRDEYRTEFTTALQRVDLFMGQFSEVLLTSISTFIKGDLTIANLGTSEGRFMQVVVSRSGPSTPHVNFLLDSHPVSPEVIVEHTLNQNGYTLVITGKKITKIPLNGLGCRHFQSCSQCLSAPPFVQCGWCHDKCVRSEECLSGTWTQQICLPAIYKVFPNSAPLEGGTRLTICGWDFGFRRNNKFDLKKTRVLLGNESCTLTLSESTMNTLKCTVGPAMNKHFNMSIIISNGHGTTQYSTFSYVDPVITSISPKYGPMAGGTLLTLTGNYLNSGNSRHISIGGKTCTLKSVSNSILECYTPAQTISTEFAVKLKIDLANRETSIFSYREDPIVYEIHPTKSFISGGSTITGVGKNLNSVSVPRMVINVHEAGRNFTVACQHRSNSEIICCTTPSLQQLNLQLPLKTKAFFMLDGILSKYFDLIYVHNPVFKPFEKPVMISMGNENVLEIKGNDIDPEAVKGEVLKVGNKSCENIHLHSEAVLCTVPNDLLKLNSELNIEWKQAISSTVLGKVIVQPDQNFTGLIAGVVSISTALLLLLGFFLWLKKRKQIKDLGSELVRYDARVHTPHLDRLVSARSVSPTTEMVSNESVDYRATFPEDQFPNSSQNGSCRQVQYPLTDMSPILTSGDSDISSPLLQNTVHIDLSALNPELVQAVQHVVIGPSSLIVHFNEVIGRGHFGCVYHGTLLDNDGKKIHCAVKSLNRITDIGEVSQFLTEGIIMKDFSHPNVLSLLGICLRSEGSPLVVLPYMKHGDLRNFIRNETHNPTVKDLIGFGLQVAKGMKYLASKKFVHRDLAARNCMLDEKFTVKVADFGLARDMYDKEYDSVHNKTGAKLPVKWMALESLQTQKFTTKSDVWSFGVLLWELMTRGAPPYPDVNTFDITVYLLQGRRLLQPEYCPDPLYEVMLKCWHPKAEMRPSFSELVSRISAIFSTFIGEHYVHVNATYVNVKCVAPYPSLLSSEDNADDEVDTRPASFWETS
Experimental: as §1

TESK1 = target: T12, TESK1 (Homo sapiens, UniProt Q15569); settings: TESK1, 1 uM
T12 construct: purchased Ambit KINOMEscan (DiscoverX)
T12 sequence (Q15569 whole entry): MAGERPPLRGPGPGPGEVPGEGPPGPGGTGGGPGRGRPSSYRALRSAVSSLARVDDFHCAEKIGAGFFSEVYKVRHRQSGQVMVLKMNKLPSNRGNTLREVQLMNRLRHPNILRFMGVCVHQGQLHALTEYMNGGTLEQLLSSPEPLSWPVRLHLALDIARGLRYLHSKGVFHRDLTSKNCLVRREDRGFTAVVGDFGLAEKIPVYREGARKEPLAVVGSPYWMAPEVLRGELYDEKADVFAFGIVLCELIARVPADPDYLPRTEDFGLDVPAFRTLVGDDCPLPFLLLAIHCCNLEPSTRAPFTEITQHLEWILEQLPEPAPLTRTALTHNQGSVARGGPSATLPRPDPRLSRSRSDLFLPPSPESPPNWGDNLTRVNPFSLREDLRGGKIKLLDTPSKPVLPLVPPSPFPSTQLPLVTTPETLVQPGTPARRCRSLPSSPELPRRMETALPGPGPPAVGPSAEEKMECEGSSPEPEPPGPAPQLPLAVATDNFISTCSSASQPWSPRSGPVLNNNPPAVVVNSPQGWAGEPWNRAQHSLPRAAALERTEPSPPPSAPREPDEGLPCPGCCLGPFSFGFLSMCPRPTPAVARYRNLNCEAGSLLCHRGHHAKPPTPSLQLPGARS
Experimental: as §1

PCTK3 = target: T13, PCTK3 (Homo sapiens, UniProt Q07002); settings: PCTK3, 1 uM
T13 construct: purchased Ambit KINOMEscan (DiscoverX)
Experimental: as §1

CHEK1 = target: T14, CHEK1 (Homo sapiens, UniProt O14757); settings: CHEK1, 1 uM
T14 construct: purchased Ambit KINOMEscan (DiscoverX)
T14 sequence (O14757 whole entry): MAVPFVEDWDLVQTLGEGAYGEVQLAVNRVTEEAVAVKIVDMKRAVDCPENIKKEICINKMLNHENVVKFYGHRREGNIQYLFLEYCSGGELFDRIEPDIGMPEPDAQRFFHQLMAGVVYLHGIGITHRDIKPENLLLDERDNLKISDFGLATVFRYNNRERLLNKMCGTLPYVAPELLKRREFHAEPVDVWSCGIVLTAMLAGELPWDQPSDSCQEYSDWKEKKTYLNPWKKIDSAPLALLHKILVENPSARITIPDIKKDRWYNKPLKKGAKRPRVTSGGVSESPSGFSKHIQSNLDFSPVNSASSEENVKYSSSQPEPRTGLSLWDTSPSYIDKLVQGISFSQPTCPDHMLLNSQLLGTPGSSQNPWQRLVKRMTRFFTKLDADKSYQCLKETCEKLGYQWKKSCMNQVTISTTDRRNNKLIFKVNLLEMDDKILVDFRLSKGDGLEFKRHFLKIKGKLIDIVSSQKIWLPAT
Experimental: as §1

[1] = target: T15, JAK2(JH1domain-catalytic) (Homo sapiens, UniProt O60674); settings: 1 uM
T15 construct: JAK2(JH1domain-catalytic); purchased Ambit KINOMEscan (DiscoverX)
Experimental: as §1

[2] = target: T16, JAK1(JH2domain-pseudokinase) (Homo sapiens, UniProt P23458); settings: 1 uM
T16 construct: JAK1(JH2domain-pseudokinase); purchased Ambit KINOMEscan (DiscoverX)
Experimental: as §1

TBK1 = target: T17, TBK1 (Homo sapiens, UniProt Q9UHD2); settings: TBK1, 1 uM
T17 construct: purchased Ambit KINOMEscan (DiscoverX)
Experimental: as §1

CAMK2A = target: T18, CAMK2A (Homo sapiens, UniProt Q9UQM7); settings: 1 uM
T18 construct: purchased Ambit KINOMEscan (DiscoverX)
Experimental: as §1

MKNK1 = target: T19, MKNK1 (Homo sapiens, UniProt Q9BUB5); settings: MKNK1, 1 uM
T19 construct: purchased Ambit KINOMEscan (DiscoverX)
Experimental: as §1

PAK3 = target: T20, PAK3 (Homo sapiens, UniProt O75914); settings: PAK3, 1 uM
T20 construct: purchased Ambit KINOMEscan (DiscoverX)
T20 sequence (O75914 whole entry): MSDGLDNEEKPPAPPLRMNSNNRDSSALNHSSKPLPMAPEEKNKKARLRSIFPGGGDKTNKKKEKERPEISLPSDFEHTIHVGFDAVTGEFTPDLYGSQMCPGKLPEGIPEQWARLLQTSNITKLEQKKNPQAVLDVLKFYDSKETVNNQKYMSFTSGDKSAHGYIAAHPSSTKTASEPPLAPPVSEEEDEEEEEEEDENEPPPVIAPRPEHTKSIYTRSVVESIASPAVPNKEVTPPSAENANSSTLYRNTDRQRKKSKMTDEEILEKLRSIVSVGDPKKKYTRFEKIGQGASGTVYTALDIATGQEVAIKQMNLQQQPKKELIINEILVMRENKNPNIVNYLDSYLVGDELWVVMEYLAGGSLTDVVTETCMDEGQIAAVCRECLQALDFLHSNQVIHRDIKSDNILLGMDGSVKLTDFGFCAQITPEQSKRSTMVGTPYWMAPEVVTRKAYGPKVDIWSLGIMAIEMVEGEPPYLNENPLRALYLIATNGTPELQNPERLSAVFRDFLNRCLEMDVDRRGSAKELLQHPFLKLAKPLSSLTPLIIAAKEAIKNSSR
Experimental: as §1

TLK1 = target: T21, TLK1 (Homo sapiens, UniProt Q9UKI8); settings: TLK1, 1 uM
T21 construct: purchased Ambit KINOMEscan (DiscoverX)
Experimental: as §1

MAP3K15 = target: T22, MAP3K15 (Homo sapiens, UniProt Q6ZN16); settings: MAP3K15, 1 uM
T22 construct: purchased Ambit KINOMEscan (DiscoverX)
Experimental: as §1

MST1 = target: T23, MST1 (Homo sapiens, UniProt Q13043); settings: MST1, 1 uM
T23 construct: purchased Ambit KINOMEscan (DiscoverX)
Experimental: as §1

CAMKK1 = target: T24, CAMKK1 (Homo sapiens, UniProt Q8N5S9); settings: CAMKK1, 1 uM
T24 construct: purchased Ambit KINOMEscan (DiscoverX)
T24 sequence (Q8N5S9 whole entry): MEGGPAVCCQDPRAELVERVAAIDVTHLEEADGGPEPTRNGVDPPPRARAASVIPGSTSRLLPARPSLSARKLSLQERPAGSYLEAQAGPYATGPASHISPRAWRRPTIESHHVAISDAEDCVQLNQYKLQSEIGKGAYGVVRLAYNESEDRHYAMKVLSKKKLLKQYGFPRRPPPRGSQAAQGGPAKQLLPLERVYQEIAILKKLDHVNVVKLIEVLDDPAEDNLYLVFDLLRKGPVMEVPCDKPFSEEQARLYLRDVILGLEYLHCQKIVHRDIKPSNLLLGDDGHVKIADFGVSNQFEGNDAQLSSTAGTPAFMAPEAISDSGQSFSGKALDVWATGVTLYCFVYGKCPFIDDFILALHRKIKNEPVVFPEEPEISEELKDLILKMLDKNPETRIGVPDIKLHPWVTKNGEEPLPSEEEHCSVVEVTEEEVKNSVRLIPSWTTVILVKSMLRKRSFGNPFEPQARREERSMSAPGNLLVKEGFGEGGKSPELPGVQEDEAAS
Experimental: as §1

p38-gamma = target: T25, p38-gamma (Homo sapiens, UniProt P53778); settings: 1 uM
T25 construct: purchased Ambit KINOMEscan (DiscoverX)
Experimental: as §1

SRPK3 = target: T26, SRPK3 (Homo sapiens, UniProt Q9UPE1); settings: SRPK3, 1 uM
T26 construct: purchased Ambit KINOMEscan (DiscoverX)
Experimental: as §1

MST4 = target: T27, MST4 (Homo sapiens, UniProt Q9P289); settings: MST4, 1 uM
T27 construct: purchased Ambit KINOMEscan (DiscoverX)
Experimental: as §1

MYLK = target: T28, MYLK (Homo sapiens, UniProt Q15746); settings: 1 uM
T28 construct: purchased Ambit KINOMEscan (DiscoverX)
Experimental: as §1

BMPR2 = target: T29, BMPR2 (Homo sapiens, UniProt Q13873); settings: BMPR2, 1 uM
T29 construct: purchased Ambit KINOMEscan (DiscoverX)
Experimental: as §1

SYK = target: T30, SYK (Homo sapiens, UniProt P43405); settings: for % binding compared to no inhibitor control: 1 uM
T30 construct: purchased Ambit KINOMEscan (DiscoverX)
Experimental: as §1

p38-alpha = target: T31, p38-alpha (Homo sapiens, UniProt Q16539); settings: 1 uM
T31 construct: purchased Ambit KINOMEscan (DiscoverX)
Experimental: as §1

FGFR2 = target: T32, FGFR2 (Homo sapiens, UniProt P21802); settings: FGFR2, 1 uM
T32 construct: purchased Ambit KINOMEscan (DiscoverX)
Experimental: as §1

PRKCH = target: T33, PRKCH (Homo sapiens, UniProt P24723); settings: 1 uM
T33 construct: purchased Ambit KINOMEscan (DiscoverX)
Experimental: as §1

KIT(V559D,T670I) = target: T34, KIT(V559D,T670I) (Homo sapiens, UniProt P10721, T670I/V559D); settings: 1 uM
T34 construct: purchased Ambit KINOMEscan (DiscoverX)
Experimental: as §1

TNK2 = target: T35, TNK2 (Homo sapiens, UniProt Q07912); settings: TNK2, 1 uM
T35 construct: purchased Ambit KINOMEscan (DiscoverX)
Experimental: as §1

MYLK2 = target: T36, MYLK2 (Homo sapiens, UniProt Q9H1R3); settings: MYLK2, 1 uM
T36 construct: purchased Ambit KINOMEscan (DiscoverX)
Experimental: as §1

PIK3CG = target: T37, PIK3CG (Homo sapiens, UniProt P48736); settings: 1 uM
T37 construct: purchased Ambit KINOMEscan (DiscoverX)
Experimental: as §1

p38-beta = target: T38, p38-beta (Homo sapiens, UniProt Q15759); settings: 1 uM
T38 construct: purchased Ambit KINOMEscan (DiscoverX)
Experimental: as §1

BIKE = target: T39, BIKE (Homo sapiens, UniProt Q9NSY1); settings: 1 uM
T39 construct: purchased Ambit KINOMEscan (DiscoverX)
T39 sequence (Q9NSY1 whole entry): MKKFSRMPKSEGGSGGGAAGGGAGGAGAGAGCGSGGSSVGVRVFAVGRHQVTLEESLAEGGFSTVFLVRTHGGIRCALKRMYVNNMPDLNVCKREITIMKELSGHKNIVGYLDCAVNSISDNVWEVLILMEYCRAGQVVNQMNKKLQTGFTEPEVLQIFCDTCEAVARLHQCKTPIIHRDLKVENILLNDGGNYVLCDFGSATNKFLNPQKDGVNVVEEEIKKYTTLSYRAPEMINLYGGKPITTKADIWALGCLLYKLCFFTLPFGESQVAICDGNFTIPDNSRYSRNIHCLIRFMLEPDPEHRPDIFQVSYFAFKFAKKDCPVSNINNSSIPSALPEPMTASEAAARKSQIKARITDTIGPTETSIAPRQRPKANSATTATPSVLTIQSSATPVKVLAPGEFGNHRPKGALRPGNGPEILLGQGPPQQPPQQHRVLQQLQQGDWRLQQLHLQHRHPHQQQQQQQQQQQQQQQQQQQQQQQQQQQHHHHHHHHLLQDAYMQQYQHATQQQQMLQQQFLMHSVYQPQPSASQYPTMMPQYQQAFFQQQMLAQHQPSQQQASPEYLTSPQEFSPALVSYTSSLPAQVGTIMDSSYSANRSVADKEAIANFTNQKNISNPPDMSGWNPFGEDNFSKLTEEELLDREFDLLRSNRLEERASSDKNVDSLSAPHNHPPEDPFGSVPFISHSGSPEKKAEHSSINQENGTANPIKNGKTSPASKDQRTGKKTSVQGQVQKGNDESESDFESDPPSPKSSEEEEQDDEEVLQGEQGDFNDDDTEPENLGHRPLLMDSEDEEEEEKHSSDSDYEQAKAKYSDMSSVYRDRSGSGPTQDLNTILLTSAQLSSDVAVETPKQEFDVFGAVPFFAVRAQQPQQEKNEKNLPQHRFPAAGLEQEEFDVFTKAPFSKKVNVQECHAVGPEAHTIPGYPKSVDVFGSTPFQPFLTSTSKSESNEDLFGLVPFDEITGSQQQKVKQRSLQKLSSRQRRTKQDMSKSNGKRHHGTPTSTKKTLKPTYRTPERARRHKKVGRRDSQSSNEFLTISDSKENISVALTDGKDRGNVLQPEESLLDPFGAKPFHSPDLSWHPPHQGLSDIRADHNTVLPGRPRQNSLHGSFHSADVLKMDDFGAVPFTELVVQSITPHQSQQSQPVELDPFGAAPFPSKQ
Experimental: as §1

| Structure (SMILES) | % binding compared to no inhibitor control (PIM3) | % binding compared to no inhibitor control (DRAK2) | % binding compared to no inhibitor control (EPHA2) | % binding compared to no inhibitor control (FLT3(N841I)) | % binding compared to no inhibitor control (MAP3K2) | % binding compared to no inhibitor control (EGFR(L747-T751del,Sins)) | % binding compared to no inhibitor control (FLT4) | % binding compared to no inhibitor control (DAPK2) | % binding compared to no inhibitor control (PKAC-beta) | % binding compared to no inhibitor control (VEGFR2) | % binding compared to no inhibitor control (MET(Y1235D)) | % binding compared to no inhibitor control (TESK1) | % binding compared to no inhibitor control (PCTK3) | % binding compared to no inhibitor control (CHEK1) | % binding compared to no inhibitor control [1] | % binding compared to no inhibitor control [2] | % binding compared to no inhibitor control (TBK1) | % binding compared to no inhibitor control (CAMK2A) | % binding compared to no inhibitor control (MKNK1) | % binding compared to no inhibitor control (PAK3) | further results |
| --- | --- | --- | --- | --- | --- | --- | --- | --- | --- | --- | --- | --- | --- | --- | --- | --- | --- | --- | --- | --- | --- |
| COc1ccc(-c2cc3nccn3c(Nc3ncccc3C(N)=O)n2)cc1OC.Cl.Cl [BAY61-3606, 2-[7-(3,4-dimethoxyphenyl)-imidazo [1,2-c]pyrimidin-5-ylamino] nicotinamide dihydrochloride, reference compound] | 81% | 15% | 100% | 1.5% | 55% | 80% | 100% | 66% | 76% | 94% | 100% | 90% | 92% | 100% | 90% | 80% | 47% | 64% | 52% | 92% | % binding compared to no inhibitor control (TLK1): 89%; % binding compared to no inhibitor control (MAP3K15): 100%; % binding compared to no inhibitor control (MST1): 85%; % binding compared to no inhibitor control (CAMKK1): 48%; % binding compared to no inhibitor control (p38-gamma): 47%; % binding compared to no inhibitor control (SRPK3): 74%; % binding compared to no inhibitor control (MST4): 57%; % binding compared to no inhibitor control (MYLK): 55%; % binding compared to no inhibitor control (BMPR2): 46%; % binding compared to no inhibitor control (SYK): 6.1%; % inhibition ATP binding (SYK; KINOMEscan, 1 μM): 93.9%; % binding compared to no inhibitor control (p38-alpha): 100%; % binding compared to no inhibitor control (FGFR2): 100%; % binding compared to no inhibitor control (PRKCH): 58%; % binding compared to no inhibitor control (KIT(V559D,T670I)): 9.3%; % binding compared to no inhibitor control (TNK2): 96%; % binding compared to no inhibitor control (MYLK2): 86%; % binding compared to no inhibitor control (PIK3CG): 26%; % binding compared to no inhibitor control (p38-beta): 100%; % binding compared to no inhibitor control (BIKE): 22% |
| COc1ccccc1Nc1nc(-c2ccc(OC)c(OC)c2)cc2nccn12 [BAY derivative 6] | 82% | 100% | 89% | 53% | 88% | 89% | 86% | 100% | 95% | 100% | 100% | 100% | 100% | 90% | 13% | 1.2% | 100% | 96% | 72% | 100% | % binding compared to no inhibitor control (TLK1): 57%; % binding compared to no inhibitor control (MAP3K15): 86%; % binding compared to no inhibitor control (MST1): 87%; % binding compared to no inhibitor control (CAMKK1): 100%; % binding compared to no inhibitor control (p38-gamma): 56%; % binding compared to no inhibitor control (SRPK3): 100%; % binding compared to no inhibitor control (MST4): 72%; % binding compared to no inhibitor control (MYLK): 100%; % binding compared to no inhibitor control (BMPR2): 87%; % binding compared to no inhibitor control (SYK): 48%; % binding compared to no inhibitor control (p38-alpha): 95%; % binding compared to no inhibitor control (FGFR2): 83%; % binding compared to no inhibitor control (PRKCH): 100%; % binding compared to no inhibitor control (KIT(V559D,T670I)): 87%; % binding compared to no inhibitor control (TNK2): 53%; % binding compared to no inhibitor control (MYLK2): 89%; % binding compared to no inhibitor control (PIK3CG): 100%; % binding compared to no inhibitor control (p38-beta): 80%; % binding compared to no inhibitor control (BIKE): 53% |
